In patent publication US20140162290A1, “PROBE FOR DETECTING DEAD CELL” (RIKEN, priority 2012, published 2014):
One block for each compound: values may come before it.

Tests used:
A431 tumor = assay: Diagnosis of apoptosis in target tissue (TUNEL and activated caspase 3 staining of tumor sections); format: in vivo, mouse (Balb/c-Ajcl-nu/nu); conditions: MMC 5 mg/6.25 mL/kg via tail vein, one, 3 and 5 days before the RI-labeled product
Excerpt: Male Balb/c-Ajcl-nu/nu mice of 5 to 6 weeks old (CLEA Japan, Inc.) were provided, and divided into two groups (the MMC administration group and the vehicle group; 3 individuals per group). A431 cells were inoculated into the left femoral region of each mouse, 2 to 3 weeks before the PET experiment for the MMC administration group, or 10 days to 2 weeks before the PET experiment for the vehicle group. Individuals of which the tumor size became […] on the day before the administration of the RI-labeled product were subjected to the PET experiment. One day, 3 days, and 5 days before the administration of the RI-labeled product, MMC (mitomycin C) was administered via the tail vein at an amount of 5 mg/6.25 mL/kg for the MMC administration group, and physiological saline was administered at amount of 6.25 mL/kg for the vehicle group.
After the completion of the PET experiment, the tumor was isolated from each mouse, and frozen sections were prepared. The prepared frozen sections were fixed with cold methanol, and stored at −20° C. until use. The sections were used for the experiment within 3 to 5 days after the dissection.
The frozen sections were subjected to blocking using Protein Block, Serum-Free (Dako), and then subjected to TUNEL staining using DeadEnd Fluorometric TUNEL System (Promega). […]

[1] = target: T1, human Tim4 wild-type IgG Fc fusion protein hTim4-Fc (181 mucin domain residues), SEQ ID NO: 49 (Homo sapiens, UniProt Q96H15, D300G/G301W/M299D/Q298T/V240A); assay: ELISA, binding capacity of hTim4-Fc to PS; conditions: n = 2
T1 construct: made in house; host or cells: Freestyle 293F cells
Method: Using a vector encoding the hTim4 sequence (pCMV6-XL5 Homo sapiens T-cell immunoglobulin and mucin domain containing 4, transcript variant 1 as transfection-ready DNA, OriGene Technologies) as a template, and a primer containing an EcoRV restriction site at 5′-end (SEQ ID NO:22) and a primer containing a BglII restriction site at 3′-end (SEQ ID NO:23), PCR was performed. The obtained PCR product and pFUSE-hIgG1e3-Fc2 (InvivoGen) encoding the human IgG-Fc region were each digested with EcoRV and BglII, and the resulting digestion products were ligated to each other. E. coli (JM109, Takara Bio Inc.) was transformed with the resulting ligation product, and colonies were obtained. From the obtained colonies, plasmids were extracted, and the DNA sequences of the plasmids were analyzed. A colony having the hTim4 sequence inserted therein was subjected to large-scale culture, to obtain a vector. […]
(§1) The obtained vector of 37.5 μg was transfected into 30 mL of 1×10^6 cells/mL Freestyle 293F cells (Life technologies) using Freestyle MAX Reagent (Life technologies), and the cells were cultured with shaking at 37° C. under 8% CO2 for 4 days. […] The purified protein was subjected to SDS-PAGE, and the molecular weight under non-reducing conditions was calculated (Table 6). […]

[2] = target: T2, human Tim4 IgG Fc fusion protein, modified type hTim4-240-Fc (111 mucin domain residues), SEQ ID NO: 51 (Homo sapiens, UniProt Q96H15, V240A); assay: ELISA, binding capacity of hTim4-240-Fc to PS; conditions: n = 2
T2 construct: made in house; host or cells: Freestyle 293F cells
Excerpt: (§2) Using the primers shown in Table 4 and PrimeSTAR Mutagenesis Basal Kit (Takara Bio Inc.), vectors encoding fusion proteins having mucin domains with various lengths, in which the C-terminus and/or the N-terminus of the wild-type mucin domain was/were deleted. More specifically, phTim4-Fc was used as a template to prepare phTim4-240-Fc and phTim4-187-Fc; the obtained phTim4-187-Fc was used as a template to prepare phTim4-184-Fc, phTim4-181-Fc, phTim4-178-Fc, phTim4-175-Fc, phTim4-162-Fc, phTim4-149-Fc, phTim4-135-Fc, phTim4-130-Fc and phTim4-Δ131-187-Fc; the obtained phTim4-240-Fc was used as a template to prepare phTim4-Δ131-240-Fc; and the obtained phTim4-Δ131-187-Fc was used as a template to prepare phTim4-Δ131-187Δ241-310-Fc. […]
as §1
(§3) Into a 96-well plate, 100 μL of PS (0.5 mg/mL) or a solvent (methanol) was placed, and dried. […] An HRP-conjugated anti-human IgG-Fc antibody was used as a secondary antibody, and the absorbance due to coloring with TMB was measured using a microplate reader. […]

[3] = target: T3, human Tim4 IgG Fc fusion protein, modified type hTim4-Δ131-240-Fc (55 mucin domain residues), SEQ ID NO: 55 (Homo sapiens, UniProt Q96H15, DEL135-260); assay: ELISA, binding capacity of hTim4-Δ131-240-Fc to PS; conditions: n = 2
T3 construct: made in house; host or cells: Freestyle 293F cells
Excerpt: as §2, §1, §3

[4] = target: T4, human Tim4 IgG Fc fusion protein, modified type hTim4-Δ131-187Δ241-310-Fc (58 mucin domain residues), SEQ ID NO: 57 (Homo sapiens, UniProt Q96H15, DEL135-187/V240A); assay: ELISA, binding capacity of hTim4-Δ131-187Δ241-310-Fc to PS; conditions: n = 2
T4 construct: made in house; host or cells: Freestyle 293F cells
Excerpt: as §2, §1, §3

[5] = target: T5, human Tim4 IgG Fc fusion protein, modified type hTim4-187-Fc (58 mucin domain residues), SEQ ID NO: 59 (Homo sapiens, UniProt Q96H15); assay: ELISA, binding capacity of hTim4-187-Fc to PS; conditions: n = 2
T5 construct: made in house; host or cells: Freestyle 293F cells
Excerpt: as §2, §1, §3

[6] = target: T6, human Tim4 IgG Fc fusion protein, modified type hTim4-184-Fc (55 mucin domain residues), SEQ ID NO: 61 (Homo sapiens, UniProt Q96H15); assay: ELISA, binding capacity of hTim4-184-Fc to PS; conditions: n = 2
T6 construct: made in house; host or cells: Freestyle 293F cells
Excerpt: as §2, §1, §3

[7] = target: T7, human Tim4 IgG Fc fusion protein, modified type hTim4-181-Fc (52 mucin domain residues), SEQ ID NO: 63 (Homo sapiens, UniProt Q96H15); assay: ELISA, binding capacity of hTim4-181-Fc to PS; conditions: n = 2
T7 construct: made in house; host or cells: Freestyle 293F cells
Excerpt: as §2, §1, §3

[8] = target: T8, human Tim4 IgG Fc fusion protein, modified type hTim4-178-Fc (49 mucin domain residues), SEQ ID NO: 65 (Homo sapiens, UniProt Q96H15); assay: ELISA, binding capacity of hTim4-178-Fc to PS; conditions: n = 2
T8 construct: made in house; host or cells: Freestyle 293F cells
Excerpt: as §2, §1, §3

[9] = target: T9, human Tim4 IgG Fc fusion protein, modified type hTim4-175-Fc (46 mucin domain residues), SEQ ID NO: 67 (Homo sapiens, UniProt Q96H15); assay: ELISA, binding capacity of hTim4-175-Fc to PS; conditions: n = 2
T9 construct: made in house; host or cells: Freestyle 293F cells
Excerpt: as §2, §1, §3

[10] = target: T10, human Tim4 IgG Fc fusion protein, modified type hTim4-240-Fc, SEQ ID NO: 51 (Homo sapiens, UniProt Q96H15, V240A); assay: Dot blotting, binding of hTim4-240-Fc to PS; conditions: 0.15 μg of PS spotted; fusion protein 0.5 μg/mL, 4° C. overnight
T10 construct: replaced N-terminal leader; Freestyle 293F, purified
Method: (§4) Dot blotting was carried out by the following procedure to evaluate the binding capacity of each fusion protein (hTim4-Fc) prepared as described above to PS. On a PVDF membrane (GE Healthcare) with a size of 10 mm×10 mm, 0.15 μg of PS was spotted, and the resulting membrane was incubated in 500 μL of a blocking buffer (5% skim milk—PBS-T) in a 24-well plate at room temperature for 1 hour, to perform blocking. To the blocking buffer in the well, each fusion protein was added at a final concentration of 0.5 μg/mL, and incubation was carried out at 4° C. overnight. A control was provided by use of only the blocking buffer. Thereafter, the PVDF membrane was washed 5 times with 2 mL of PBS-T, and incubated at room temperature for 2 hours in an HRP-conjugated anti-human IgG-Fc antibody (Bethyl) solution which was 10000-fold diluted with 500 μL of the blocking buffer. Subsequently, the membrane was washed 5 times with 2 mL of PBS-T, followed by chemiluminescence using ECL prime (GE healthcare) and detection using LAS 3000 (Fujifilm).

[11] = target: T11, human Tim4 IgG Fc fusion protein, modified type hTim4-187-Fc, SEQ ID NO: 59 (Homo sapiens, UniProt Q96H15); assay: Dot blotting, binding of hTim4-187-Fc to PS; conditions: 0.15 μg of PS spotted; fusion protein 0.5 μg/mL, 4° C. overnight
T11 construct: replaced N-terminal leader; Freestyle 293F, purified
Method: as §4

[12] = target: T12, human Tim4 IgG Fc fusion protein, modified type hTim4-184-Fc, SEQ ID NO: 61 (Homo sapiens, UniProt Q96H15); assay: Dot blotting, binding of hTim4-184-Fc to PS; conditions: 0.15 μg of PS spotted; fusion protein 0.5 μg/mL, 4° C. overnight
T12 construct: replaced N-terminal leader; Freestyle 293F, purified
Method: as §4

[13] = target: T13, human Tim4 IgG Fc fusion protein, modified type hTim4-181-Fc, SEQ ID NO: 63 (Homo sapiens, UniProt Q96H15); assay: Dot blotting, binding of hTim4-181-Fc to PS; conditions: 0.15 μg of PS spotted; fusion protein 0.5 μg/mL, 4° C. overnight
T13 construct: replaced N-terminal leader; Freestyle 293F, purified
Method: as §4

[14] = target: T14, human Tim4 IgG Fc fusion protein, modified type hTim4-178-Fc, SEQ ID NO: 65 (Homo sapiens, UniProt Q96H15); assay: Dot blotting, binding of hTim4-178-Fc to PS; conditions: 0.15 μg of PS spotted; fusion protein 0.5 μg/mL, 4° C. overnight
T14 construct: replaced N-terminal leader; Freestyle 293F, purified
Method: as §4

[15] = target: T15, human Tim4 IgG Fc fusion protein, modified type hTim4-175-Fc, SEQ ID NO: 67 (Homo sapiens, UniProt Q96H15); assay: Dot blotting, binding of hTim4-175-Fc to PS; conditions: 0.15 μg of PS spotted; fusion protein 0.5 μg/mL, 4° C. overnight
T15 construct: replaced N-terminal leader; Freestyle 293F, purified
Method: as §4

[16] = target: T11, human Tim4 IgG Fc fusion protein, modified type hTim4-187-Fc, SEQ ID NO: 59; assay: Dot blotting, binding specificity of hTim4-187-Fc to various phospholipids; conditions: PE, PC, PI and PS spotted, 1 μL of 100 pmol/μL each; fusion protein 0.5 μg/mL, room temperature 2 hours
Method: Dot blotting was carried out by the following procedure to evaluate the binding capacity of the fusion protein of the present invention to various phospholipids.
On a PVDF membrane (GE Healthcare), 1 μL each of 100 pmol/μL 3-sn-phosphatidylethanolamine (PE), L-α-phosphatidylcholine (PC), L-α-phosphatidylinositol (PI), and 3-sn-phosphatidyl-L-serine (Sigma Aldrich) were spotted, and the resulting membrane was incubated in 2 mL of a blocking buffer (5% skim milk—PBS-T) at room temperature for 1 hour, to perform blocking. To the blocking buffer in each well, hTim4-187-Fc was added at a final concentration of 0.5 μg/mL, and incubation was carried out at room temperature for 2 hours. Thereafter, the PVDF membrane was washed 5 times with 5 mL of PBS-T, and incubated at room temperature for 2 hours in an HRP-conjugated anti-human IgG-Fc antibody (Bethyl) solution which was 10000-fold diluted with 2 mL of the blocking buffer. Subsequently, the membrane was washed 5 times with 5 mL of PBS-T, followed by chemiluminescence using ECL prime (GE healthcare) and detection using LAS 3000 (Fujifilm).

[17] = 10-fold dilution series of the fusion protein on PS-coated plate, read-out: EC50 ± SE (50% effective concentration)

T11 sequence (Q96H15 with tags, fused parts or gaps): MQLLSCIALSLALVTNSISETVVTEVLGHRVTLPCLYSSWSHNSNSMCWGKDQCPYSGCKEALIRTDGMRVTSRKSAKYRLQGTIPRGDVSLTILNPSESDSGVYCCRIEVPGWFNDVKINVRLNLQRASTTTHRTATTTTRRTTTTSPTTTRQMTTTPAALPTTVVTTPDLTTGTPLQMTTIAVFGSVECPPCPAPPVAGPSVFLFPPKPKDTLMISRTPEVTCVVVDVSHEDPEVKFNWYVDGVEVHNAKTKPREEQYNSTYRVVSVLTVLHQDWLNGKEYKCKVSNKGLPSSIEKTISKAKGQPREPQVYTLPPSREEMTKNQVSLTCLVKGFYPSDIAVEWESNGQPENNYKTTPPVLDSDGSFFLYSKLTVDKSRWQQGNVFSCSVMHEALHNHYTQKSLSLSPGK
T1 sequence (Q96H15 with tags, fused parts or gaps V240A/Q298T/M299D/D300G/G301W): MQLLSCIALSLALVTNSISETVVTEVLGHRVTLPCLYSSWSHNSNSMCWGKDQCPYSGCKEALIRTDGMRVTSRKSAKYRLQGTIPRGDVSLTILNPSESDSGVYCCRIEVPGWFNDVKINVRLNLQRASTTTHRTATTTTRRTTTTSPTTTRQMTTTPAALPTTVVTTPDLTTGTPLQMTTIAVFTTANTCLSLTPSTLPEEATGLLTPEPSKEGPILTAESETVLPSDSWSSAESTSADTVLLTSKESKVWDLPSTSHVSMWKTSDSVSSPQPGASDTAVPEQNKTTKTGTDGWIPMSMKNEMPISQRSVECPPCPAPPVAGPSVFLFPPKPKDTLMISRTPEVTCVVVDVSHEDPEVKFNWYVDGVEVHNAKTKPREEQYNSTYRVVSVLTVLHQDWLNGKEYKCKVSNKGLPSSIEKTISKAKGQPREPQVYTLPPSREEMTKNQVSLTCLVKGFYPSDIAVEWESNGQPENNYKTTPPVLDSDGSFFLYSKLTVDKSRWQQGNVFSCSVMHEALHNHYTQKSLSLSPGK
T8 sequence (Q96H15 with tags, fused parts or gaps): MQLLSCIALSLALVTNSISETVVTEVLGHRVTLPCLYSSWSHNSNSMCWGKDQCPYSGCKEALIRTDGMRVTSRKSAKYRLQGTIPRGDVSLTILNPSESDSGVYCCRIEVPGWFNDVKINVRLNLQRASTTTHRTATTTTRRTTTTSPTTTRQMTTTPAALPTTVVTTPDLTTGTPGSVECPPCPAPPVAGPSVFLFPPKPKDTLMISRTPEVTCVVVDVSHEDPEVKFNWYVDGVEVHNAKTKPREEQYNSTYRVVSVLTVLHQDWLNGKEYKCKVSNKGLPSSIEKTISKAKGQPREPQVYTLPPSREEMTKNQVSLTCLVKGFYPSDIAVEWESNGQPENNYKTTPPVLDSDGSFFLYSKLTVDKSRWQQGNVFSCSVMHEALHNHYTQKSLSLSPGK
T4 sequence (Q96H15 with tags, fused parts or gaps DEL135-187/V240A limits assumed): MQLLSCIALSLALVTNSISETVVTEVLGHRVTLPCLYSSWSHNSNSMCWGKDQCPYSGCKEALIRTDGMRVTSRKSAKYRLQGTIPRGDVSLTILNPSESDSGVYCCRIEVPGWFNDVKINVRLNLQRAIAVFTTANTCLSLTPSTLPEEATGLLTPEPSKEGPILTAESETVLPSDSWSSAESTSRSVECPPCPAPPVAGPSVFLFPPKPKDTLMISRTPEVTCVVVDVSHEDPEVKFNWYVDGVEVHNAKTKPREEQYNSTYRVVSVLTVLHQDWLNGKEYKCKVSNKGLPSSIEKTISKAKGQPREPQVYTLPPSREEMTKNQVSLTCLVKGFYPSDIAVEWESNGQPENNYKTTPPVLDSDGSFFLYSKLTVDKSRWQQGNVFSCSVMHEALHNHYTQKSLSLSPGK
T3 sequence (Q96H15 with tags, fused parts or gaps DEL135-260 limits assumed): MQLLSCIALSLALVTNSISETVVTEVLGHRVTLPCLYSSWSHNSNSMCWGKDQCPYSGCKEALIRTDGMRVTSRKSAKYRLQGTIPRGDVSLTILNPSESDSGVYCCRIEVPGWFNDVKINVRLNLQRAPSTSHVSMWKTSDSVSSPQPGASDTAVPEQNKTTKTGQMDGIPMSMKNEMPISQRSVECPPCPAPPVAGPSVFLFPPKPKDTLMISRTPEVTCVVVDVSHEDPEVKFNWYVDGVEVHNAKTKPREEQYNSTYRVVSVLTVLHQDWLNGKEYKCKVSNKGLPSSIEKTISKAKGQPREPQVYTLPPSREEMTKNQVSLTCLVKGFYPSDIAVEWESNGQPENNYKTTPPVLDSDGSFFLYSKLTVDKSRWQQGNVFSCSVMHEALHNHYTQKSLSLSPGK
T2 sequence (Q96H15 with tags, fused parts or gaps V240A): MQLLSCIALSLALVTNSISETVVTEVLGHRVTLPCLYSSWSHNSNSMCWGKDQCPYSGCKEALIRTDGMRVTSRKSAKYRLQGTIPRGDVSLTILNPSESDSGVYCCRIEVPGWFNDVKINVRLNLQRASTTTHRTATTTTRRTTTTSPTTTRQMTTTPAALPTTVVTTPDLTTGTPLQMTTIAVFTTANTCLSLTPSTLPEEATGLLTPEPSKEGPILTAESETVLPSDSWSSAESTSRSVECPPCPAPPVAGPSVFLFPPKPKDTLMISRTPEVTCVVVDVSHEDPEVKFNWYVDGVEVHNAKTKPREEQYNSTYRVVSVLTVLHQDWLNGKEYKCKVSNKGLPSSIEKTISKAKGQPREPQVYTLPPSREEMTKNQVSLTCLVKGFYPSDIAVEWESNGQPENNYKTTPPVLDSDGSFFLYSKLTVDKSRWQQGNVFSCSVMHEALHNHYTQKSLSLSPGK
T9 sequence (Q96H15 with tags, fused parts or gaps): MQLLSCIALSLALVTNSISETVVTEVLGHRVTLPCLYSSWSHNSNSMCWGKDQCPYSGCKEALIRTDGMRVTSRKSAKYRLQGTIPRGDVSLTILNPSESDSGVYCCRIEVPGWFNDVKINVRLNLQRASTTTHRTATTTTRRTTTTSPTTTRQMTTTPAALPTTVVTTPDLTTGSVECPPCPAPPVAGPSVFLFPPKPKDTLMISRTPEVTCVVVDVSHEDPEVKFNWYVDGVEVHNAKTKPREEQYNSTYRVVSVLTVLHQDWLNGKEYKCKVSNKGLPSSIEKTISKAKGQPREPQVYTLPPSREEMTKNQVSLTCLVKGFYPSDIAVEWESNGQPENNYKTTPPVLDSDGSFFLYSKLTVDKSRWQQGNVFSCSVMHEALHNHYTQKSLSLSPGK
T7 sequence (Q96H15 with tags, fused parts or gaps): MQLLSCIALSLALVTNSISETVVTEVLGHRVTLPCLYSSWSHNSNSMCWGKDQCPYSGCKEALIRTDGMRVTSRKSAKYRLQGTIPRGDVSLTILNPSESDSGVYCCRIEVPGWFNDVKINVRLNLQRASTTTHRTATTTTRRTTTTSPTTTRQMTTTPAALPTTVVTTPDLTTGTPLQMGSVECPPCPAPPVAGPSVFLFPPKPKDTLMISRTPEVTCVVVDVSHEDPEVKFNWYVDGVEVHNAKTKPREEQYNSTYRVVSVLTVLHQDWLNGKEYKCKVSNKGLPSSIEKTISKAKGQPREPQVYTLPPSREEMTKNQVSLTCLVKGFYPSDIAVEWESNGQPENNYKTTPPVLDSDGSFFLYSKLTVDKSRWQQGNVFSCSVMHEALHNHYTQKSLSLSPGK
T6 sequence (Q96H15 with tags, fused parts or gaps): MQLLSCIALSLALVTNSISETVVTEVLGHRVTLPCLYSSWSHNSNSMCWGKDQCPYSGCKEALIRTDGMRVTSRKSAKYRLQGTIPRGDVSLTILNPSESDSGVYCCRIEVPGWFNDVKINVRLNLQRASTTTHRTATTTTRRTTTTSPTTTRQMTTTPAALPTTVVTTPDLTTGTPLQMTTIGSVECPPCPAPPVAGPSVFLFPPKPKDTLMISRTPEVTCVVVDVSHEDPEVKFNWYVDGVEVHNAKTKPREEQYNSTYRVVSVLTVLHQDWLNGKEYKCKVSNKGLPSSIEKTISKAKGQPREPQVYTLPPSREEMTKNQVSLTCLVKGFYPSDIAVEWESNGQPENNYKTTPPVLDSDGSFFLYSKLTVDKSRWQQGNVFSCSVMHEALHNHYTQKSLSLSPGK
T10 sequence (Q96H15 with tags, fused parts or gaps V240A): as the sequence (Q96H15 with tags, fused parts or gaps V240A) above

Compound: CO[C@@]12[C@H](COC(N)=O)C3=C(C(=O)C(C)=C(N)C3=O)N1C[C@@H]1N[C@@H]12 [MMC, mitomycin C]
- occurrence of apoptosis in the tumor (A431 tumor): occurrence of apoptosis in the tumor of the MMC-administered individuals was confirmed

- EC50 [1, 17]: 0.2 nM
- Bmax ± SE (maximum binding amount) ([1]; PS-coated plate): 0.00 ± 0.00 Abs 450 nm
- EC50 [2, 17]: 7.1 ± 14.9 nM
- Bmax ± SE (maximum binding amount) ([2]; PS-coated plate): 0.01 ± 0.01 Abs 450 nm
- EC50 [3, 17]: 148 ± 85.8 nM
- Bmax ± SE (maximum binding amount) ([3]; PS-coated plate): 0.07 ± 0.02 Abs 450 nm
- EC50 [4, 17]: 132 ± 305 nM
- Bmax ± SE (maximum binding amount) ([4]; PS-coated plate): 0.02 ± 0.03 Abs 450 nm
- EC50 [5, 17]: 62.8 ± 20.2 nM
- Bmax ± SE (maximum binding amount) ([5]; PS-coated plate): 1.02 ± 0.14 Abs 450 nm
- EC50 [6, 17]: 100 ± 45.2 nM
- Bmax ± SE (maximum binding amount) ([6]; PS-coated plate): 0.84 ± 0.17 Abs 450 nm
- EC50 [7, 17]: 47.5 ± 6.2 nM
- Bmax ± SE (maximum binding amount) ([7]; PS-coated plate): 0.74 ± 0.04 Abs 450 nm
- EC50 [8, 17]: 67 ± 54.8 nM
- Bmax ± SE (maximum binding amount) ([8]; PS-coated plate): 0.63 ± 0.22 Abs 450 nm
- EC50 [9, 17]: 76.2 ± 19.5 nM
- Bmax ± SE (maximum binding amount) ([9]; PS-coated plate): 0.77 ± 0.08 Abs 450 nm
- binding to PS [10]: binding to PS was confirmed
- binding to PS [11]: binding to PS was confirmed
- binding to PS [12]: binding to PS was confirmed
- binding to PS [13]: binding to PS was confirmed
- binding to PS [14]: binding to PS was confirmed
- binding to PS [15]: binding to PS was confirmed
- binding specificity to PS among phospholipids [16]: binds to only PS
Compound: 3-sn-phosphatidyl-L-serine [PS]
